Measured values: patent US8481547B2, “Substituted benzothiazole and benzoxazole derivatives useful as inhibitors of DPP-1” (Janssen Pharmaceutica NV, priority 2009, dated 2013)
Structures can show the parent of a compound that is named as a salt.

Target: T1, recombinant human DPP-1 (Cathepsin C) (Homo sapiens, UniProt P53634)
T1 construct: made in house
Experiment: DPP-1 Inhibition Assay (In Vitro)
Format: biochemical
Details: fluorogenic substrate GR-AMC 10 uM, 0.15 nM DPP-1, pH 7.0, room temperature; average value where tested multiple times
Method: Test compounds were assessed for DPP-1 (Cathepsin C) inhibitory activity using a fluorogenic substrate, GR-AMC (Glycine-Arginine-amino-4-methylcoumarin, Bachem, 1-1215). The amount of amino-methylcoumarin released is proportional to the DPP-1 activity, and the reaction is monitored kinetically with a Molecular Devices plate reader using black 96-well plates.
All compounds were tested under room temperature conditions. The assay buffer consisted of 50 mM HEPES, pH 7.0, 100 mM NaCl, 2 mM glutathione (GSH), and 0.002% TWEEN 20. GSH and TWEEN 20 were added to the buffer fresh daily. Just prior to use, an in-house preparation of recombinant human DPP-1 (240 μM stock, MW 49.6 kD) was diluted 600-fold in assay buffer containing fresh 2 mM dithiothreitol (DTT) to activate the enzyme, then diluted into assay buffer (without DTT) 133-fold for a DPP-1 working solution of 3 nM. Test compounds were diluted in DMSO for 20× their final assay concentrations.
Additions to a 96-well black Costar 3915 plates were as follows: 90 μL of 11 μM GR-AMC, 5 μL test compound (followed by mixing), and 5 μL 3 nM DPP1 to start the reaction. Fluorescent reactions were monitored kinetically at 360 nm excitation, 440 nm emission on a Molecular Devices Spectramax XPS reader. The Softmax Pro software of the reader determined the initial velocity of the selected data (the first 3-5 minutes of the reaction), and the best linear regression fit of the initial kinetic data. Final assay conditions were 0.15 nM DPP-1, 10 uM GR-AMC, 50 mM HEPES, pH 7.0, 100 mM NaCl, 2 mM GSH, 0.002% TWEEN 20, 1 μM DTT, 5.0% DMSO. Initial velocity rates were plotted vs. test compound concentration by use of a four-parameter logistics equation (nonlinear regression, sigmoidal dose-response (variable slope), with fixed Hill (1.0) using GraphPad Prism® software for determination of DPP-1 IC50. Within-run assay coefficient of variation (CV) was generally <10%; between-run CV<20%.
Representative compounds of the present invention were tested according to the procedure as described above, with results as listed in Table 3, below.

T1 sequence (P53634 25-463): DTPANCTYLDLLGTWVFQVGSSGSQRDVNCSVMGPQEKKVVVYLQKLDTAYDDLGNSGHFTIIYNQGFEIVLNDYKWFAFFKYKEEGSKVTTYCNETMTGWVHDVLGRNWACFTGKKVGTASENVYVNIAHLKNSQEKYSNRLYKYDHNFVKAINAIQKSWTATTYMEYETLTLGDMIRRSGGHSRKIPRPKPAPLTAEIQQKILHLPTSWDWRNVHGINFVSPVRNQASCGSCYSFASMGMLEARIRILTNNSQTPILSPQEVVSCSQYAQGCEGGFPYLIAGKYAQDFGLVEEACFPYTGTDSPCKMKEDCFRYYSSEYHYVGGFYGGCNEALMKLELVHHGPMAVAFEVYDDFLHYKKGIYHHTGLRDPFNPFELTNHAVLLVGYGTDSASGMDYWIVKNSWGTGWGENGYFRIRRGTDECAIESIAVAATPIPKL

| Compound | IC50 [nM] |
| --- | --- |
| CCCNC(=O)c1ccc2nc(N3CCN(C(=O)[C@@H](N)Cc4cccs4)CC3)sc2c1 [Compound 29] | 2100 |
| CC[C@H](N)C(=O)NCCNc1nc2ccc(OC)cc2s1 [Compound 43, (S)-2-amino-N-(2-(6-methoxybenzo[d]thiazol-2-ylamino)ethyl)butanamide hydrochloride] | 12000 |
| N[C@@H](Cc1cccs1)C(=O)N1CCN(c2nc3ccc(C(=O)O)cc3s2)CC1 [Compound 26] | 9600 |
| CC[C@H](N)C(=O)N1CCN(c2nc3ccc(C(=O)Nc4ccc(OC)c(OC)c4)cc3s2)CC1 [Compound 4, (S)-2-(4-(2-aminobutanoyl)piperazin-1-yl)-N-(3,4-dimethoxyphenyl)benzo[d]thiazole-6-carboxamide hydrochloride] | 3000 |
| COc1ccc(NC(=O)c2ccc3nc(N4CCN(C(=O)[C@@H](N)Cc5ccsc5)CC4)sc3c2)cc1OC [Compound 12] | 5600 |
| N[C@@H](Cc1cccs1)C(=O)N1CCN(c2nc3ccccc3o2)CC1 [Compound 2, (S)-2-amino-1-(4-(benzo[d]oxazol-2-yl)piperazin-1-yl)-3-(thiophen-2-yl)propan-1-one hydrochloride] | 1400 |
| C#CC[C@H](N)C(=O)NCCNc1nc2ccccc2s1 [Compound 42] | 4700 |
| CN(C)C(=O)c1ccc2nc(N3CCN(C(=O)[C@@H](N)Cc4cccs4)CC3)sc2c1 [Compound 27] | 2200 |
| COc1ccc(NC(=O)c2ccc3nc(N4CCN(C(=O)[C@@H](N)Cc5ccco5)CC4)sc3c2)cc1OC [Compound 6] | 2100 |
| N[C@@H](Cc1cccs1)C(=O)N1CCN(c2nc3ccccc3s2)CC1 [Compound 1] | 3500 |
| CC[C@H](N)C(=O)NCCNc1nc2ccccc2o1 [Compound 45] | ~8000 |
| CC[C@H](N)C(=O)NCCNc1nc2ccccc2s1 [Compound 41, (S)-2-amino-N-(2-(benzo[d]thiazol-2-ylamino)ethyl)butanamide hydrochloride] | 18000 |
| N[C@@H](Cc1cccs1)C(=O)N1CCN(c2nc3ccc(C(=O)NC4CCCCC4)cc3s2)CC1 [Compound 30] | 2300 |
| C#CC[C@H](N)C(=O)NCCNc1nc2ccccc2o1 [Compound 44, (S)-2-amino-N-(2-(benzo[d]oxazol-2-ylamino)ethyl)pent-4-ynamide hydrochloride] | 3100 |

Compounds with a lower IC50, results first:

| IC50 [nM] | Compound |
| --- | --- |
| 1200 | CCOc1ccc(NC(=O)c2ccc3nc(N4CCN(C(=O)[C@@H](N)Cc5cccs5)CC4)sc3c2)cc1 [Compound 28] |
| 580 | N[C@@H](Cc1cccs1)C(=O)N1CCN(c2nc3ccc(-c4ccccc4F)cc3s2)CC1 [Compound 16] |
| 220 | N[C@@H](Cc1cccs1)C(=O)N1CCN(c2nc3ccc(-c4ccc(O)cc4)cc3s2)CC1 [Compound 15] |
| 760 | N[C@@H](Cc1cccs1)C(=O)N1CCN(c2nc3ccc(CO)cc3s2)CC1 [Compound 18, (S)-2-amino-1-(4-(6-(hydroxymethyl)benzo[d]thiazol-2-yl)piperazin-1-yl)-3-(thiophen-2-yl)propan-1-one] |
| 820 | CCCCNC(=O)c1ccc2nc(N3CCN(C(=O)[C@@H](N)Cc4cccs4)CC3)sc2c1 [Compound 24] |
| 560 | N[C@@H](Cc1cccs1)C(=O)N1CCN(c2nc3ccc(C(=O)Nc4ccc(F)cc4)cc3s2)CC1 [Compound 20] |
| 170 | COc1ccc(NC(=O)c2ccc3nc(N4CCN(C(=O)[C@@H](N)Cc5cccs5)CC4)sc3c2)cc1OC [Compound 3, (S)-2-(4-(2-amino-3-(thiophen-2-yl)propanoyl)piperazin-1-yl)-N-(3,4-dimethoxyphenyl)benzo[d]thiazole-6-carboxamide hydrochloride] |
| 520 | N[C@@H](Cc1cccs1)C(=O)N1CCN(c2nc3ccc(CNC4CCCC4)cc3s2)CC1 [Compound 21, (S)-2-amino-1-(4-(6-((cyclopentylamino)methyl)benzo[d]thiazol-2-yl)piperazin-1-yl)-3-(thiophen-2-yl)propan-1-one] |
| 1300 | N[C@@H](Cc1cccs1)C(=O)N1CCN(c2nc3ccc(-c4ccc(C(F)(F)F)cc4)cc3s2)CC1 [Compound 14, (S)-2-amino-3-(thiophen-2-yl)-1-(4-(6-(4-(trifluoromethyl)phenyl)benzo[d]thiazol-2-yl)piperazin-1-yl)propan-1-one] |
| 200 | COc1ccc(NC(=O)c2ccc3nc(NCCN(C)C(=O)[C@@H](N)Cc4cccs4)sc3c2)cc1OC [Compound 48, (S)-2-(2-(2-amino-N-methyl-3-(thiophen-2-yl)propanamido)ethylamino)-N-(3,4-dimethoxyphenyl)benzo[d]thiazole-6-carboxamide] |
| 870 | N[C@@H](Cc1cccs1)C(=O)N1CCN(c2nc3ccc(C(=O)NC4CCCC4)cc3s2)CC1 [Compound 19, (S)-2-(4-(2-amino-3-(thiophen-2-yl)propanoyl)piperazin-1-yl)-N-cyclopentylbenzo[d]thiazole-6-carboxamide] |
| 970 | N[C@@H](Cc1cccs1)C(=O)N1CCN(c2nc3ccc(-c4ccc(F)c(F)c4)cc3s2)CC1 [Compound 11] |
| 370 | N[C@@H](Cc1cccs1)C(=O)N1CCN(c2nc3ccc(-c4cccnc4)cc3s2)CC1 [Compound 13] |
| 1100 | Cc1ccc(-c2ccc3nc(N4CCN(C(=O)[C@@H](N)Cc5cccs5)CC4)sc3c2)cc1 [Compound 8] |
| 740 | N[C@@H](Cc1cccs1)C(=O)NCCNc1nc2ccccc2s1 [Compound 46, (S)-2-amino-N-(2-(benzo[d]thiazol-2-ylamino)ethyl)-3-(thiophen-2-yl)propanamide hydrochloride] |
| 1200 | COc1cccc(CNC(=O)c2ccc3nc(N4CCN(C(=O)[C@@H](N)Cc5cccs5)CC4)sc3c2)c1 [Compound 31] |
| 700 | N[C@@H](Cc1cccs1)C(=O)NCCNc1nc2ccccc2o1 [Compound 47] |
| 1300 | N[C@@H](Cc1cccs1)C(=O)N1CCN(c2nc3ccc(Br)cc3s2)CC1 [Compound 5] |
